{"source": "ChEMBL document CHEMBL1138512", "about": "“A class of 2,4-bisanilinopyrimidine Aurora A inhibitors with unusually high selectivity against Aurora B” (J Med Chem, 2009)", "key": {"[1]": {"target": "T1, Cyclin-dependent kinase 2 (Homo sapiens, UniProt P24941)", "test": "Inhibition of CDK2/cyclin A"}, "[2]": {"target": "Beta-adrenergic receptor kinase 1 (Homo sapiens) (UniProt P25098)", "test": "Inhibition of GRK2 at 1 uM"}, "[3]": {"target": "RAC-alpha serine/threonine-protein kinase (Homo sapiens) (UniProt P31749)", "sequence (P31749 whole entry)": "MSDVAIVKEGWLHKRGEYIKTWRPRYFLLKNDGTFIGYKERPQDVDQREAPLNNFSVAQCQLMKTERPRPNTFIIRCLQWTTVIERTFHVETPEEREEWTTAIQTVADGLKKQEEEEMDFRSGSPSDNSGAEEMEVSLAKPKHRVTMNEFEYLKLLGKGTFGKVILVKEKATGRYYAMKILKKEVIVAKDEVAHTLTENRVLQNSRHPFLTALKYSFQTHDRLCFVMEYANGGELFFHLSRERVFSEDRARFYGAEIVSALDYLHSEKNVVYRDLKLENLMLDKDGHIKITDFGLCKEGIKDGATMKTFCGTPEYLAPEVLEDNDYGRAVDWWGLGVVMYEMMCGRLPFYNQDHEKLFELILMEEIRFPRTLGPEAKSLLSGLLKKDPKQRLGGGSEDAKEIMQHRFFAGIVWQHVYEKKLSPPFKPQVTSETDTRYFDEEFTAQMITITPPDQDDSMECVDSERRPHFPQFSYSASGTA", "test": "Inhibition of PKBalpha at 1 uM"}, "[4]": {"target": "ALK tyrosine kinase receptor (Homo sapiens) (UniProt Q9UM73)", "test": "Inhibition of ALK at 1 uM"}, "[5]": {"target": "5'-AMP-activated protein kinase catalytic subunit alpha-1 (Homo sapiens) (UniProt Q13131)", "test": "Inhibition of AMPK A1/B1/G1 at 1 uM"}, "[6]": {"target": "Aurora kinase A (Homo sapiens) (UniProt O14965)", "sequence (O14965 whole entry)": "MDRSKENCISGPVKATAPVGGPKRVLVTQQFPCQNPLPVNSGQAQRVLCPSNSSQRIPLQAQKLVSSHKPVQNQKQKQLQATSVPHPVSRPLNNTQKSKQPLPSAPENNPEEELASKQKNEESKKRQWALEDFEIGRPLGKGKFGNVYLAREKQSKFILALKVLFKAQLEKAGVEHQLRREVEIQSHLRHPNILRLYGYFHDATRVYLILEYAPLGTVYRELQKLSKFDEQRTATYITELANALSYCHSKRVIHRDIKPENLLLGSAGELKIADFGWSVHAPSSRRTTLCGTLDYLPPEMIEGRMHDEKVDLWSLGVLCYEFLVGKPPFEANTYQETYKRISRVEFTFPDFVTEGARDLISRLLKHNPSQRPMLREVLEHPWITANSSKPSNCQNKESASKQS", "test": "Inhibition of Aurora A at 1 uM"}, "[7]": {"target": "Aurora kinase C (Homo sapiens) (UniProt Q9UQB9)", "test": "Inhibition of Aurora C at 1 uM"}, "[8]": {"target": "Serine/threonine-protein kinase B-raf (Homo sapiens) (UniProt P15056)", "sequence (P15056 whole entry)": "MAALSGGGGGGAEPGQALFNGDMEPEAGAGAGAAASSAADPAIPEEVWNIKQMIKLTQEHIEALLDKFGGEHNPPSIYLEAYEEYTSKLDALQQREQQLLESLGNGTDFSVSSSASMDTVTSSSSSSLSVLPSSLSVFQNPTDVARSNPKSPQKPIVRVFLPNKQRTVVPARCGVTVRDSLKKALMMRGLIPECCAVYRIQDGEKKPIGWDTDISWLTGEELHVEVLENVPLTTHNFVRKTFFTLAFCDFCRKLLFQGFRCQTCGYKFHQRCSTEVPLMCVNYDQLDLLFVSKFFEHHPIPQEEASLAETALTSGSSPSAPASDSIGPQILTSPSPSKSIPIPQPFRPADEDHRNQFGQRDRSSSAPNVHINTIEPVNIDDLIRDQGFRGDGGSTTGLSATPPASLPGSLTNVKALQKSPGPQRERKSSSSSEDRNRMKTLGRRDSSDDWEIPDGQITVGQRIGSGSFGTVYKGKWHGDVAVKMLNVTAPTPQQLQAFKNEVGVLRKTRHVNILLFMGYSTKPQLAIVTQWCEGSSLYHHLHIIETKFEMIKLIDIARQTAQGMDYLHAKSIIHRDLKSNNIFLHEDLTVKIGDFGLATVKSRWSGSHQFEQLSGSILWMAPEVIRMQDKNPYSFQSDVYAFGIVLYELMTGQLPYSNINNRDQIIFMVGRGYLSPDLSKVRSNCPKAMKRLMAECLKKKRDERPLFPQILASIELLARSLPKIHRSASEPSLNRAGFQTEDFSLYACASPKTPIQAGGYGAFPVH", "test": "Inhibition of BRAF at 1 uM"}, "[9]": {"target": "Calcium/calmodulin-dependent protein kinase type 1D (Homo sapiens) (UniProt Q8IU85)", "test": "Inhibition of CaMK1delta at 1 uM"}, "[10]": {"target": "Calcium/calmodulin-dependent protein kinase type II subunit alpha (Homo sapiens) (UniProt Q9UQM7)", "test": "Inhibition of CaMK2alpha at 1 uM"}, "[11]": {"target": "Serine/threonine-protein kinase MRCK alpha (Homo sapiens) (UniProt Q5VT25)", "test": "Inhibition of MRCKalpha at 1 uM"}, "[12]": {"target": "T1, Cyclin-dependent kinase 2", "test": "Inhibition of CDK2/cyclin A at 1 uM"}, "[13]": {"target": "Cyclin-dependent kinase 5/CDK5 activator 1 (Homo sapiens) (UniProt Q00535+Q15078)", "test": "Inhibition of CDK5/p25 at 1 uM", "format": "protein-complex assay"}, "[14]": {"target": "Serine/threonine-protein kinase Chk1 (Homo sapiens) (UniProt O14757)", "test": "Inhibition of CHK1 at 1 uM"}, "[15]": {"target": "Macrophage colony-stimulating factor 1 receptor (Homo sapiens) (UniProt P07333)", "test": "Inhibition of FMS at 1 uM"}, "[16]": {"target": "Casein kinase I isoform alpha (Homo sapiens) (UniProt P48729)", "test": "Inhibition of CK1alpha1 at 1 uM"}, "[17]": {"target": "Casein kinase I isoform gamma-2 (Homo sapiens) (UniProt P78368)", "test": "Inhibition of CK1gamma2 at 1 uM"}, "[18]": {"target": "Casein kinase II subunit alpha (Homo sapiens) (UniProt P68400)", "test": "Inhibition of CK2alpha1 at 1 uM"}, "[19]": {"target": "Dual specificity tyrosine-phosphorylation-regulated kinase 3 (Homo sapiens) (UniProt O43781)", "sequence (O43781 whole entry)": "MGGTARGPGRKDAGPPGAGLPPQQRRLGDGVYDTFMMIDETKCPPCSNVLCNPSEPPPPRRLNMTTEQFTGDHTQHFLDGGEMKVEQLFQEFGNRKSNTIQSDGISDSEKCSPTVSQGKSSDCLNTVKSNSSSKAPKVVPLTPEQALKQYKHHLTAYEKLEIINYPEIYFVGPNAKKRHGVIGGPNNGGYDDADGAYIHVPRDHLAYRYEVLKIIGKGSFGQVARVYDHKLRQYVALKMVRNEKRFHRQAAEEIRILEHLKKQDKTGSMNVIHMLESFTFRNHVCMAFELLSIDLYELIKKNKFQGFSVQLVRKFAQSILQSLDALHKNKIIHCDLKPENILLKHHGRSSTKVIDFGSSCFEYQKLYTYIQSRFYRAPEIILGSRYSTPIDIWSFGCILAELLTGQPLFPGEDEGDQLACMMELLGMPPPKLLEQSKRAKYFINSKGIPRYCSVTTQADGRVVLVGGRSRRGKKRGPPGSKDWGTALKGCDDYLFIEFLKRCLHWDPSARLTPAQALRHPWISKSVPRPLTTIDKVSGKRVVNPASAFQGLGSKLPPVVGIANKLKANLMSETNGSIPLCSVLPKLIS", "test": "Inhibition of DYRK3 at 1 uM"}, "[20]": {"target": "Ephrin type-A receptor 1 (Homo sapiens) (UniProt P21709)", "test": "Inhibition of EPHA1 at 1 uM"}, "[21]": {"target": "Ephrin type-B receptor 1 (Homo sapiens) (UniProt P54762)", "test": "Inhibition of EPHB1 at 1 uM"}, "[22]": {"target": "Receptor-type tyrosine-protein kinase FLT3 (Homo sapiens) (UniProt P36888)", "sequence (P36888 whole entry)": "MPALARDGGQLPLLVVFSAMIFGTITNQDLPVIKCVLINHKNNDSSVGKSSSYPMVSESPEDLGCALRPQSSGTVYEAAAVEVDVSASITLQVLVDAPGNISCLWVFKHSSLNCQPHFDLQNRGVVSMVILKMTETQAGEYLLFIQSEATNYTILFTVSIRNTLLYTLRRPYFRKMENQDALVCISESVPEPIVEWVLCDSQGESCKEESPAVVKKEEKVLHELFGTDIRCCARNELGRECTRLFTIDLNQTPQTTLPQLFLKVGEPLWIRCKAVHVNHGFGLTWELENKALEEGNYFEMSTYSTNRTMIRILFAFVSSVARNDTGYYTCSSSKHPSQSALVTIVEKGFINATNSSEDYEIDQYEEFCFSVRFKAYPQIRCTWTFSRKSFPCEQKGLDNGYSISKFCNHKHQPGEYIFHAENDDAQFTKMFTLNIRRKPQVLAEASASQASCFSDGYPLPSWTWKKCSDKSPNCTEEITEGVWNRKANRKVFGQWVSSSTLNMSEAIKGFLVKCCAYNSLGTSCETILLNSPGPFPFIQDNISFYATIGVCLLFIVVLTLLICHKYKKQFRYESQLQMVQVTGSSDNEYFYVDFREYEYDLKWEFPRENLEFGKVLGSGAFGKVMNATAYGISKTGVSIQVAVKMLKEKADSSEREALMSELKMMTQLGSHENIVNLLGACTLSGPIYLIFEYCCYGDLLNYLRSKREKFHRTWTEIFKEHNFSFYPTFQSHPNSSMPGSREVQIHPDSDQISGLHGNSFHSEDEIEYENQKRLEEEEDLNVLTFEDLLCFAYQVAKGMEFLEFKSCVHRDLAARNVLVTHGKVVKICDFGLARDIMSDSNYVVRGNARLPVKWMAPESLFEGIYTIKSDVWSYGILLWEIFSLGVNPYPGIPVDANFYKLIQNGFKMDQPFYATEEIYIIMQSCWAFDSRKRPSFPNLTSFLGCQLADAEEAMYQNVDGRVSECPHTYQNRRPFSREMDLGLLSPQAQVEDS", "test": "Inhibition of FLT3 at 1 uM"}, "[23]": {"target": "Glycogen synthase kinase-3 beta (Homo sapiens) (UniProt P49841)", "test": "Inhibition of GSK3-beta at 1 uM"}, "[24]": {"target": "Inhibitor of nuclear factor kappa-B kinase subunit beta (Homo sapiens) (UniProt O14920)", "test": "Inhibition of IKK-beta at 1 uM"}, "[25]": {"target": "Tyrosine-protein kinase JAK2 (Homo sapiens) (UniProt O60674)", "test": "Inhibition of JAK2 at 1 uM"}, "[26]": {"target": "Vascular endothelial growth factor receptor 2 (Homo sapiens) (UniProt P35968)", "test": "Inhibition of VEGFR2 at 1 uM"}, "[27]": {"target": "Mitogen-activated protein kinase 1 (Homo sapiens) (UniProt P28482)", "test": "Inhibition of ERK2 at 1 uM"}, "[28]": {"target": "Mitogen-activated protein kinase 8 (Homo sapiens) (UniProt P45983)", "sequence (P45983 whole entry)": "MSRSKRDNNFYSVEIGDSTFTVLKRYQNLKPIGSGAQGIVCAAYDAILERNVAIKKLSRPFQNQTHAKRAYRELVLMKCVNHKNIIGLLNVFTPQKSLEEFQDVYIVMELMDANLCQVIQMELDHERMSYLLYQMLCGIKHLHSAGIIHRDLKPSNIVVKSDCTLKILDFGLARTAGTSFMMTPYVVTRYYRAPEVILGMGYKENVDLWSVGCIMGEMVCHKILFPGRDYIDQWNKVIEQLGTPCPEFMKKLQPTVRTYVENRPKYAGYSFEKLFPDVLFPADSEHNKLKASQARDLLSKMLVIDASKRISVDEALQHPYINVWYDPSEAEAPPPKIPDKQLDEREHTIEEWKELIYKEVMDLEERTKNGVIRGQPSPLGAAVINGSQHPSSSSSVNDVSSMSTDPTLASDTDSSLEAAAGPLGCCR", "test": "Inhibition of JNK1 at 1 uM"}, "[29]": {"target": "Hepatocyte growth factor receptor (Homo sapiens) (UniProt P08581)", "test": "Inhibition of c-Met at 1 uM"}, "[30]": {"target": "Serine/threonine-protein kinase Nek1 (Homo sapiens) (UniProt Q96PY6)", "test": "Inhibition of NEK1 at 1 uM"}, "[31]": {"target": "Serine/threonine-protein kinase Nek2 (Homo sapiens) (UniProt P51955)", "test": "Inhibition of NEK2 at 1 uM"}, "[32]": {"target": "Serine/threonine-protein kinase Nek6 (Homo sapiens) (UniProt Q9HC98)", "sequence (Q9HC98 whole entry)": "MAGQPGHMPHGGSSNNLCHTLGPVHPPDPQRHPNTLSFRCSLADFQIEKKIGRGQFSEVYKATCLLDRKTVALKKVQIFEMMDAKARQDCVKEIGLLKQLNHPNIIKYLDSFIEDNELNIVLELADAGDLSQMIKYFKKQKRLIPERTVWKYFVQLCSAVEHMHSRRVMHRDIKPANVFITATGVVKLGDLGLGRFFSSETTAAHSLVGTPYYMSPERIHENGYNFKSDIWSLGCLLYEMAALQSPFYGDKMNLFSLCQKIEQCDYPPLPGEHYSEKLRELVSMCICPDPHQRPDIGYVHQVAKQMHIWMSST", "test": "Inhibition of NEK6 at 1 uM"}, "[33]": {"target": "High affinity nerve growth factor receptor (Homo sapiens) (UniProt P04629)", "test": "Inhibition of TRKA at 1 uM"}, "[34]": {"target": "Serine/threonine-protein kinase PAK 3 (Homo sapiens) (UniProt O75914)", "test": "Inhibition of PAK3 at 1 uM"}, "[35]": {"target": "Platelet-derived growth factor receptor alpha (Homo sapiens) (UniProt P16234)", "test": "Inhibition of PDGFRA at 1 uM"}, "[36]": {"target": "Serine/threonine-protein kinase pim-1 (Homo sapiens) (UniProt P11309)", "sequence (P11309 whole entry, looked up)": "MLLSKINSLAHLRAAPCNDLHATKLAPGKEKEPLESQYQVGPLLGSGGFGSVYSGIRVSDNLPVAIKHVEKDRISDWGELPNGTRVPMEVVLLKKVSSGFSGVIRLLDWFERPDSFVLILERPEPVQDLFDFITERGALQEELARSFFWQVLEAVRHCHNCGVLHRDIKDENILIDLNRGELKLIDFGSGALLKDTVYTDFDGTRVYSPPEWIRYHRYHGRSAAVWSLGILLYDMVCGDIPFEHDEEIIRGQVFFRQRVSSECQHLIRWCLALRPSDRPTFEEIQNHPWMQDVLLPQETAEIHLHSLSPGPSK", "test": "Inhibition of PIM1 at 1 uM"}, "[37]": {"target": "Serine/threonine-protein kinase PLK2 (Homo sapiens) (UniProt Q9NYY3)", "test": "Inhibition of PLK2 at 1 uM"}, "[38]": {"target": "Serine/threonine-protein kinase PLK3 (Homo sapiens) (UniProt Q9H4B4)", "test": "Inhibition of PLK3 at 1 uM"}, "[39]": {"target": "cAMP-dependent protein kinase catalytic subunit alpha (Homo sapiens) (UniProt P17612)", "test": "Inhibition of PRKACA at 1 uM"}, "[40]": {"target": "Protein kinase C alpha type (Homo sapiens) (UniProt P17252)", "test": "Inhibition of PKCalpha at 1 uM"}, "[41]": {"target": "Rho-associated protein kinase 1 (Homo sapiens) (UniProt Q13464)", "test": "Inhibition of ROCK1 at 1 uM"}, "[42]": {"target": "Ribosomal protein S6 kinase alpha-1 (Homo sapiens) (UniProt Q15418)", "test": "Inhibition of RSK1 at 1 uM"}, "[43]": {"target": "Ribosomal protein S6 kinase beta-1 (Homo sapiens) (UniProt P23443)", "test": "Inhibition of p70S6K at 1 uM"}, "[44]": {"target": "Proto-oncogene tyrosine-protein kinase Src (Homo sapiens) (UniProt P12931)", "sequence (P12931 2-536 limits assumed)": "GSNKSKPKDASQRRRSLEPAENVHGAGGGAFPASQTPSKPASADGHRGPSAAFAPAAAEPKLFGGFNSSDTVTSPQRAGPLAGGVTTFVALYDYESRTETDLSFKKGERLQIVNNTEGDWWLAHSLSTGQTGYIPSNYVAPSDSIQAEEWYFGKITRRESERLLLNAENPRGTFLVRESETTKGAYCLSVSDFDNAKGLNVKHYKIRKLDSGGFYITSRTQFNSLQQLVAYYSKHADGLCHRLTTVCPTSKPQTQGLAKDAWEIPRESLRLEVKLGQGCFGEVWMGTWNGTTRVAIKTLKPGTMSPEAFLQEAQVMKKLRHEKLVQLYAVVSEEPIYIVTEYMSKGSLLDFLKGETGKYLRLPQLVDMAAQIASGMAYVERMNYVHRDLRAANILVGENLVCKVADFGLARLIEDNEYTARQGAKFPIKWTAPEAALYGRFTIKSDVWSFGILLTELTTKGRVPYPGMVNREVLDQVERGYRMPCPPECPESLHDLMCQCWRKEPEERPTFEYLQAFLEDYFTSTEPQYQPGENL", "test": "Inhibition of SRC at 1 uM"}, "[45]": {"target": "Mitogen-activated protein kinase kinase kinase 9 (Homo sapiens) (UniProt P80192)", "test": "Inhibition of MLK1 at 1 uM"}, "[46]": {"target": "Mitogen-activated protein kinase kinase kinase kinase 2 (Homo sapiens) (UniProt Q12851)", "test": "Inhibition of GCK at 1 uM"}, "[47]": {"target": "3-phosphoinositide-dependent protein kinase 1 (Homo sapiens) (UniProt O15530)", "test": "Inhibition of PDK1 at 1 uM"}, "[48]": {"target": "Aurora kinase B (Homo sapiens, UniProt Q96GD4)", "test": "Inhibition of Aurora B in human HCT116 cells assessed as complete loss of phospho-histone H3 staining by immunofluorescence assay"}}}
{"smiles": "CC(=O)N1CCN(C(=O)Cc2ccc(Nc3ncc(F)c(Nc4ccc(C(=O)Nc5ccccc5Cl)cc4)n3)cc2)CC1", "values": [{"measurement": "IC50", "setting": "[1]", "value": "> 16", "unit": "µM"}, {"measurement": "inhibition", "setting": "[2]", "value": 8, "unit": "%"}, {"measurement": "inhibition", "setting": "[3]", "value": 11, "unit": "%"}, {"measurement": "inhibition", "setting": "[4]", "value": 21, "unit": "%"}, {"measurement": "inhibition", "setting": "[5]", "value": 20, "unit": "%"}, {"measurement": "inhibition", "setting": "[6]", "value": 103, "unit": "%"}, {"measurement": "inhibition", "setting": "[7]", "value": 36, "unit": "%"}, {"measurement": "inhibition", "setting": "[8]", "value": 7, "unit": "%"}, {"measurement": "inhibition", "setting": "[9]", "value": 18, "unit": "%"}, {"measurement": "inhibition", "setting": "[10]", "value": 9, "unit": "%"}, {"measurement": "inhibition", "setting": "[11]", "value": 11, "unit": "%"}, {"measurement": "inhibition", "setting": "[12]", "value": 15, "unit": "%"}, {"measurement": "inhibition", "setting": "[13]", "value": 7, "unit": "%"}, {"measurement": "inhibition", "setting": "[14]", "value": 14, "unit": "%"}, {"measurement": "inhibition", "setting": "[15]", "value": 79, "unit": "%"}, {"measurement": "inhibition", "setting": "[16]", "value": 3, "unit": "%"}, {"measurement": "inhibition", "setting": "[17]", "value": 10, "unit": "%"}, {"measurement": "inhibition", "setting": "[18]", "value": 16, "unit": "%"}, {"measurement": "inhibition", "setting": "[19]", "value": 5, "unit": "%"}, {"measurement": "inhibition", "setting": "[20]", "value": 34, "unit": "%"}, {"measurement": "inhibition", "setting": "[21]", "value": 25, "unit": "%"}, {"measurement": "inhibition", "setting": "[22]", "value": 91, "unit": "%"}, {"measurement": "inhibition", "setting": "[23]", "value": 30, "unit": "%"}, {"measurement": "inhibition", "setting": "[24]", "value": 39, "unit": "%"}, {"measurement": "inhibition", "setting": "[25]", "value": 78, "unit": "%"}, {"measurement": "inhibition", "setting": "[26]", "value": 76, "unit": "%"}, {"measurement": "inhibition", "setting": "[27]", "value": 11, "unit": "%"}, {"measurement": "inhibition", "setting": "[28]", "value": 21, "unit": "%"}, {"measurement": "inhibition", "setting": "[29]", "value": 14, "unit": "%"}, {"measurement": "inhibition", "setting": "[30]", "value": 29, "unit": "%"}, {"measurement": "inhibition", "setting": "[31]", "value": 25, "unit": "%"}, {"measurement": "inhibition", "setting": "[32]", "value": 8, "unit": "%"}, {"measurement": "inhibition", "setting": "[33]", "value": 67, "unit": "%"}, {"measurement": "inhibition", "setting": "[34]", "value": 4, "unit": "%"}, {"measurement": "inhibition", "setting": "[35]", "value": 23, "unit": "%"}, {"measurement": "inhibition", "setting": "[36]", "value": 2, "unit": "%"}, {"measurement": "inhibition", "setting": "[37]", "value": 12, "unit": "%"}, {"measurement": "inhibition", "setting": "[38]", "value": -3, "unit": "%"}, {"measurement": "inhibition", "setting": "[39]", "value": 7, "unit": "%"}, {"measurement": "inhibition", "setting": "[40]", "value": 15, "unit": "%"}, {"measurement": "inhibition", "setting": "[41]", "value": -8, "unit": "%"}, {"measurement": "inhibition", "setting": "[42]", "value": 23, "unit": "%"}, {"measurement": "inhibition", "setting": "[43]", "value": 17, "unit": "%"}, {"measurement": "inhibition", "setting": "[44]", "value": 30, "unit": "%"}, {"measurement": "inhibition", "setting": "[45]", "value": 41, "unit": "%"}, {"measurement": "inhibition", "setting": "[46]", "value": 10, "unit": "%"}, {"measurement": "inhibition", "setting": "[47]", "value": 19, "unit": "%"}, {"measurement": "IC50", "setting": "[48]", "value": "> 25", "unit": "µM"}]}
